Experimental data published in patent publication US20140045823A1 (Neurocrine Biosciences, Inc., priority 2012, published 2014).
pEC50: −log10 of the molar value.

target: T1, human GPR119 (Homo sapiens, UniProt Q8TDV5); assay: AlphaScreen cAMP assay in MIN6 cells stably transfected with human GPR119; format: cell-based; settings: Min-6/hGPR119 cells, 45 min at room temperature
T1 construct: expression vector for human GPR119 cDNA (Acc. No. NP_848566); expressed in transfected cells; Min-6/hGPR119
T1 sequence (Q8TDV5 1-335): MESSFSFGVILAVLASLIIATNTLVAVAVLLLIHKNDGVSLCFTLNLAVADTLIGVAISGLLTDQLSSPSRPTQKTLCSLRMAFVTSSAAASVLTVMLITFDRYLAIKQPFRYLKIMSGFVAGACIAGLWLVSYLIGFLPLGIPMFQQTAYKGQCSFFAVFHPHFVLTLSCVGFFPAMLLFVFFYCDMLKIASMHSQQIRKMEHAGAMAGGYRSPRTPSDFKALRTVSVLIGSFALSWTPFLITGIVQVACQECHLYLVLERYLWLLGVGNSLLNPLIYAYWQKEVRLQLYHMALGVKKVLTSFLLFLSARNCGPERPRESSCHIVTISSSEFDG
Summary of the method: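 cAMP accumulation quantified by AlphaScreen after 45 min compound stimulation at about 20 °C. Stimulation buffer: pH 7.4 HEPES saline with 0.5 mM IBMX, 0.1% BSA, 1% DMSO final. Cells: MIN6 stably transfected with human GPR119, 10000/well, cultured 24 h beforehand.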

SMILES	pEC50
CC(C)(C)OC(=O)N1CCC(N(C(=O)c2cnc(-c3ccc(C(=O)NCC4CCOCC4)c(F)c3)nc2)C2CC2)CC1 [Example 128, 4-[Cyclopropyl-(2-{3-fluoro-4-[(tetrahydro-pyran-4-ylmethyl)-carbamoyl]-phenyl}-pyrimidine-5-carbonyl)-amino]-piperidine-1-carboxylic acid tert-butyl ester]	6.81
CC(C)(C)OC(=O)N1CCC(N(C(=O)c2cnc(-c3ccc(C(=O)N4CCCC(CO)C4)c(F)c3)nc2)C2CC2)CC1 (stereo not drawn) [Example 129, 4-(Cyclopropyl-{2-[3-fluoro-4-(3-hydroxymethyl-piperidine-1-carbonyl)-phenyl]-pyrimidine-5-carbonyl}-amino)-piperidine-1-carboxylic acid tert-butyl ester]	6.26
COCC(C)NC(=O)c1ccc(-c2ncc(C(=O)N(C3CC3)C3CCN(C(=O)OC(C)(C)C)CC3)cn2)cc1F (stereo not drawn) [Example 130, 4-(Cyclopropyl-{2-[3-fluoro-4-(2-methoxy-1-methyl-ethylcarbamoyl)-phenyl]-pyrimidine-5-carbonyl}-amino)-piperidine-1-carboxylic acid tert-butyl ester]	6.71
CC(C)(C)OC(=O)N1CCC(N(C(=O)c2cnc(-c3ccc(C(=O)NCC4CCOC4)c(F)c3)nc2)C2CC2)CC1 (stereo not drawn) [Example 131, 4-[Cyclopropyl-(2-{3-fluoro-4-[(tetrahydro-furan-3-ylmethyl)-carbamoyl]-phenyl}-pyrimidine-5-carbonyl)-amino]-piperidine-1-carboxylic acid tert-butyl ester]	6.76
CN(CC#N)C(=O)c1ccc(-c2ncc(C(=O)N(C3CC3)C3CCN(C(=O)OC(C)(C)C)CC3)cn2)cc1F [Example 132, 4-({2-[4-(Cyanomethyl-methyl-carbamoyl)-3-fluoro-phenyl]-pyrimidine-5-carbonyl}-cyclopropyl-amino)-piperidine-1-carboxylic acid tert-butyl ester]	7.01
COC1CCN(C(=O)c2ccc(-c3ncc(C(=O)N(C4CC4)C4CCN(C(=O)OC(C)(C)C)CC4)cn3)c(F)c2)CC1 [Example 133, 4-(Cyclopropyl-{2-[2-fluoro-4-(4-methoxy-piperidine-1-carbonyl)-phenyl]-pyrimidine-5-carbonyl}-amino)-piperidine-1-carboxylic acid tert-butyl ester]	6.29
COC[C@H]1CCCN1C(=O)c1ccc(-c2ncc(C(=O)N(C3CC3)C3CCN(C(=O)OC(C)(C)C)CC3)cn2)c(F)c1 [Example 134, 4-(Cyclopropyl-{2-[2-fluoro-4-(2-methoxymethyl-pyrrolidine-1-carbonyl)-phenyl]-pyrimidine-5-carbonyl}-amino)-piperidine-1-carboxylic acid tert-butyl ester]	6.25
COCC(C)N(C)C(=O)c1ccc(-c2ncc(C(=O)N(C3CC3)C3CCN(C(=O)OC(C)(C)C)CC3)cn2)c(F)c1 (stereo not drawn) [Example 135, 4-[Cyclopropyl-(2-{2-fluoro-4-[(2-methoxy-1-methyl-ethyl)-methyl-carbamoyl]-phenyl}-pyrimidine-5-carbonyl)-amino]-piperidine-1-carboxylic acid tert-butyl ester]	6.04
Cn1ccc(CNC(=O)c2ccc(-c3ncc(C(=O)N(C4CC4)C4CCN(C(=O)OC(C)(C)C)CC4)cn3)cc2F)n1 [Example 136, 4-[Cyclopropyl-(2-{3-fluoro-4-[(1-methyl-1H-pyrazol-3-ylmethyl)-carbamoyl]-phenyl}-pyrimidine-5-carbonyl)-amino]-piperidine-1-carboxylic acid tert-butyl ester]	6.71
COC1CN(C(=O)c2ccc(-c3ncc(C(=O)N(C4CC4)C4CCN(C(=O)OC(C)(C)C)CC4)cn3)cc2F)C1 [Example 137, 4-(Cyclopropyl-{2-[3-fluoro-4-(3-methoxy-azetidine-1-carbonyl)-phenyl]-pyrimidine-5-carbonyl}-amino)-piperidine-1-carboxylic acid tert-butyl ester]	6.58
CN(CCOCC1CC1)C(=O)c1ccc(-c2ncc(C(=O)N(C3CC3)C3CCN(C(=O)OC(C)(C)C)CC3)cn2)c(F)c1 [Example 138, 4-[Cyclopropyl-(2-{4-[(2-cyclopropylmethoxy-ethyl)-methyl-carbamoyl]-2-fluoro-phenyl}-pyrimidine-5-carbonyl)-amino]-piperidine-1-carboxyli acid tert-butyl ester]	6.46

More lines, now with the values ahead:

pEC50	SMILES
6.58	CN(Cc1ccncc1)C(=O)c1ccc(-c2ncc(C(=O)N(C3CC3)C3CCN(C(=O)OC(C)(C)C)CC3)cn2)cc1F [Example 139, 4-(Cyclopropyl-{2-[3-fluoro-4-(methyl-pyridin-4-ylmethyl-carbamoyl)-phenyl]-pyrimidine-5-carbonyl}-amino)-piperidine-1-carboxylic acid tert-butyl ester]
6.36	CN(CC#N)C(=O)c1ccc(-c2ncc(C(=O)N(C3CC3)C3CCN(C(=O)OC(C)(C)C)CC3)cn2)c(F)c1 [Example 140, 4-({2-[4-(Cyanomethyl-methyl-carbamoyl)-2-fluoro-phenyl]-pyrimidine-5-carbonyl}-cyclopropyl-amino)-piperidine-1-carboxylic acid tert-butyl ester]
6.64	CC(C)(C)OC(=O)N1CCC(N(C(=O)c2cnc(-c3ccc(C(=O)N4CCC(O)(C(F)(F)F)CC4)c(F)c3)nc2)C2CC2)CC1 [Example 141, 4-(Cyclopropyl-{2-[3-fluoro-4-(4-hydroxy-4-trifluoromethyl-piperidine-1-carbonyl)-phenyl]-pyrimidine-5-carbonyl}-amino)-piperidine-1-carboxylic acid tert-butyl ester]
6.98	CC(C)(C)OC(=O)N1CCC(N(C(=O)c2cnc(-c3ccc(C(=O)NCCOC(F)(F)F)c(F)c3)nc2)C2CC2)CC1 [Example 142, 4-(Cyclopropyl-{2-[3-fluoro-4-(2-trifluoromethoxy-ethylcarbamoyl)-phenyl]-pyrimidine-5-carbonyl}-amino)-piperidine-1-carboxylic acid tert-butyl ester]
6.77	COc1ccc(NC(=O)c2ccc(-c3ncc(C(=O)N(C4CC4)C4CCN(C(=O)OC(C)(C)C)CC4)cn3)c(F)c2)c(OC)c1 [Example 143, 4-(Cyclopropyl-{2-[4-(2,4-dimethoxy-phenylcarbamoyl)-2-fluoro-phenyl]-pyrimidine-5-carbonyl}-amino)-piperidine-1-carboxylic acid tert-butyl ester]
6.64	CC(C)(C)OC(=O)N1CCC(N(C(=O)c2cnc(-c3ccc(C(=O)NCC4(C)CCCO4)c(F)c3)nc2)C2CC2)CC1 (stereo not drawn) [Example 144, 4-[Cyclopropyl-(2-{3-fluoro-4-[(2-methyl-tetrahydro-furan-2-ylmethyl)-carbamoyl]-phenyl}-pyrimidine-5-carbonyl)-amino]-piperidine-1-carboxylic acid tert-butyl ester]
6.00	CC(C)(C)OC(=O)N1CCC(N(C(=O)c2cnc(-c3ccc(C(=O)NC4CCOCC4)cc3F)nc2)C2CC2)CC1 [Example 145, 4-(Cyclopropyl-{2-[2-fluoro-4-(tetrahydro-pyran-4-ylcarbamoyl)-phenyl]-pyrimidine-5-carbonyl}-amino)-piperidine-1-carboxylic acid tert-buyl ester]
